Measured values from patent US20120309717A1, “COMPOUNDS, METHODS AND PHARMACEUTICAL COMPOSITIONS FOR INHIBITING PARP” (EISAI INC., priority 2003, published 2012).

Tests used:
P388D1 cells = test: H2O2 induced cell death assay (cytoprotective effect, LDH release); type: cell-based, murine; settings: Mus musculus, approximate values, concentration for 50% reduction of cell death, 2 mM H2O2, 4 h
Procedure: We used a H2O2 induced cell death assay to determine the cytoprotective effect of PARP inhibitors. P388D1 cells (CCL-46, ATCC), derived from a murine macrophage-like tumor, were maintained in Dulbeco's Modified Eagle Medium (DMEM) with 10% horse serum and 2 mM L-glutamine. The cytotoxicity assay was set up in a 96-well plate. In each well, 190 ul cells were seeded at 2×10^6/ml density. To determine the EC50, the concentration of a compound required to achieve 50% reduction of cell death, a dose response experiment was conducted. PARP inhibitors were added to the media to a final concentration of 0.01, 0.03, 0.1, 0.3, 1, 3, 10, 30 uM. After 15 min incubation with a PARP inhibitor, 5 ul of freshly prepared H2O2 were added to the cells to a final concentration of 2 mM. Cells were returned to 37° C. incubator for 4 h. At the end of incubation, 25 ul of supernatant were sampled from the cell media to determine the level of lactate dehydrogenase (LDH) released from dead cells. The LDH activity was determined by monitoring the rate of decrease of NADH absorbency at 340 nm. The group without drug treatment was used to calculate total cell death due to H2O2 treatment. Each data point was an average of quadruplicate. The EC50 was determined from a dose response curve.

[1] = molecular target: T1, purified recombinant human PARP (Homo sapiens, UniProt P09874); test: PARP enzyme assay (IC50); type: biochemical; settings: approximate values
T1 construct: purchased Trevigan (Gaithersburg, Md.)
Procedure: A convenient method to determine IC50 of a PARP inhibitor compound is a PARP assay using purified recombinant human PARP from Trevigan (Gaithersburg, Md.), as follows: The PARP enzyme assay is set up on ice in a volume of 100 microliters consisting of 100 mM Tris-HCl (pH 8.0), 1 mM MgCl2, 28 mM KCl, 28 mM NaCl, 0.1 mg/ml of DNase I activated herring sperm DNA (Sigma, Mo.), 3.0 micromolar [3H]nicotinamide adenine dinucleotide (470 mci/mmole), 7 micrograms/ml PARP enzyme, and various concentrations of the compounds to be tested. The reaction is initiated by incubating the mixture at 25° C. After 15 minutes of incubation, the reaction is terminated by adding 500 microliters of ice cold 20% (w/v) trichloroacetic acid. The precipitate formed is transferred onto a glass fiber filter (Packard Unifilter-GF/B) and washed three times with ethanol. After the filter is dried, the radioactivity is determined by scintillation counting.

[2] = system: human fibroblast cells lines (W138 or BJ cells); test: proliferative capacity and lifespan of human fibroblast cells; type: cell-based
Procedure: At the time of subdivision, the media is aspirated, and the cells rinsed with phosphate buffer saline (PBS) and then trypsinized. The cells are counted with a Coulter counter and plated at a density of 10^5 cells per cm^2 in 6-well tissue culture plates in DMEM/199 medium supplemented with 10% bovine calf serum and varying amounts (0.10 μM, and 1 mM: from a 100× stock solution in DMEM/M199 medium) of a PARP inhibitor. This process is repeated every 7 days until the cells appear to stop dividing. The untreated (control) cells reach senescence and stop dividing after about 40 days in culture. […] The cells treated with 1 mM 3-AB will still divide after 60 days in culture.

[3] = system: ischemia and reperfusion of the heart; settings: cited from earlier work
colitis = settings: rats; cited from earlier work
endotoxic shock = settings: cited from earlier work

T1 sequence (P09874 whole entry): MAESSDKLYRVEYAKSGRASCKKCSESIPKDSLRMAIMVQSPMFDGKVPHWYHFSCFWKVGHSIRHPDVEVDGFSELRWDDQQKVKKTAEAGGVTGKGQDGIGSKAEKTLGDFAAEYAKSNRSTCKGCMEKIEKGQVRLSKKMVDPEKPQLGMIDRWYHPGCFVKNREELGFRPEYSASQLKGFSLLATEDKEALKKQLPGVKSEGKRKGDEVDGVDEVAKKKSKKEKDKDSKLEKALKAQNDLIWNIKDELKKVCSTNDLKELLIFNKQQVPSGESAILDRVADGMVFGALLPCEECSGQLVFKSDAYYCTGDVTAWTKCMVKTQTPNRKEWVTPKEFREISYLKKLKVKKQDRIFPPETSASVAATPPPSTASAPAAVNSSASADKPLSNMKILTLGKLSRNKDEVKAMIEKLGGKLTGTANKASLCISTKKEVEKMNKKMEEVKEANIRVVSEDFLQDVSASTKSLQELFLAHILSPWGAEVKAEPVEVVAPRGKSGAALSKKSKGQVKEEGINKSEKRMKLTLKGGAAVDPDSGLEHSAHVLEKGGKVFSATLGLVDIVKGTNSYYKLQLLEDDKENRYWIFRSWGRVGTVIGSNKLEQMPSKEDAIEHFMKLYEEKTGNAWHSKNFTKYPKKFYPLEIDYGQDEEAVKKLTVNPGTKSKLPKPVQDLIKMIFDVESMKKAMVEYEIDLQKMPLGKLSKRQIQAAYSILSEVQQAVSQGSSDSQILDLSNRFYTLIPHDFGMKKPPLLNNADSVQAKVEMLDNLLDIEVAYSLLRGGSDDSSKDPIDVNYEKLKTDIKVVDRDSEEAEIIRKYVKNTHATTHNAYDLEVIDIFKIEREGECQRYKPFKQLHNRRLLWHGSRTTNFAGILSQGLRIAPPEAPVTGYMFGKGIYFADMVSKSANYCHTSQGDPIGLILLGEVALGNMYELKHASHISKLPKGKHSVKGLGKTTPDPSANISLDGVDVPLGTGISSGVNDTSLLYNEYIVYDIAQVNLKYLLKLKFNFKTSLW

| IC50 ([1]; Table II) | IC50 ([1]; Table I) | Structure (SMILES) | EC50 (P388D1 cells; Table II) | further results |
| --- | --- | --- | --- | --- |
| 21 nM | – | O=C(O)C(O)C(O)C(=O)NCc1ccc2c(c1)-c1n[nH]c(=O)c3cccc(c13)O2 (centres unmarked) [drawing 41] | 5270 nM | – |
| – | 26 nM | O=c1[nH]nc2c3c(cccc13)NC(CO)=N2 | – | EC50 (P388D1 cells; Table I): 360 nM |
| 35 nM | – | N=C(N)NCc1ccc2c(c1)-c1n[nH]c(=O)c3cccc(c13)O2 | 1000 nM | – |
| – | 26 nM | NNC(=O)C1=Cc2n[nH]c(=O)c3cccc(c23)N1 | – | EC50 (P388D1 cells; Table I): 510 nM |
| – | 160 nM | O=C(O)C1=Cc2n[nH]c(=O)c3cccc(c23)N1 | – | EC50 (P388D1 cells; Table I): 1700 nM |
| 101 nM | – | O=c1[nH]nc2c3c(cccc13)Oc1ccc(CN3CCN(CCO)CC3)cc1-2 | 80 nM | – |
| – | 19 nM | O=c1[nH]nc2c3c(cccc13)NC(CN1CCCCC1)=N2 | – | EC50 (P388D1 cells; Table I): 120 nM |
| 74 nM | – | CN1CCN(Cc2ccc3c(c2)-c2n[nH]c(=O)c4cccc(c24)O3)CC1 [drawing 46] | 130 nM | – |
| 413 nM | – | O=C(CCP(=O)(OCc1ccccc1)OCc1ccccc1)OCc1ccc2c(c1)-c1n[nH]c(=O)c3cccc(c13)O2 | – | – |
| 38 nM | – | O=c1[nH]nc2c3c(cccc13)Oc1ccc(CN(CCO)CCO)cc1-2 [drawing 52] | – | – |
| – | 19 nM | CN(C)CC1=Nc2n[nH]c(=O)c3cccc(c23)N1 | – | EC50 (P388D1 cells; Table I): 130 nM |
| – | – | O=C(O)C(O)C(O)C(=O)NCc1ccc2c(c1)-c1n[nH]c(=O)c3cccc(c13)O2 (centres unmarked) [Compound 52, 2,3-Dihydroxy-N-(3-oxo-2,3-dihydro-7-oxa-1,2-diaza-benzo[de]anthracen-10-ylmethyl)-succinamic acid] | – | melting point: 181 to 185 °C |
| 128 nM | – | O=c1[nH]nc2c3c(cccc13)Oc1ccc(CN3CCN(CCOCCO)CC3)cc1-2 | 75 nM | – |
| 165 nM | – | NOCc1ccc2c(c1)-c1n[nH]c(=O)c3cccc(c13)O2 | 470 nM | – |
| 92 nM | – | O=c1[nH]nc2c3c(cccc13)Oc1ccc(CO)cc1-2 | 410 nM | – |
| 34 nM | – | O=c1[nH]nc2c3c(cccc13)Oc1ccc(COP(=O)(O)O)cc1-2 | 750 nM | – |
| – | – | NC(=O)c1cccc(N)c1 [3-amino-benzamide] | – | effect on lifespan of the cells ([2]; 10 μM): little or no effect; effect on lifespan of the cells ([2]; 100 μM): lengthen the lifespan of the cells; effect on lifespan and proliferative capacity of the cells ([2]; 1 mM): dramatically increases the lifespan and proliferative capacity; time in culture at which cells still divide ([2]; 1 mM, untreated cells stop after about 40 days): > 60 days; reduction in infarct size in the heart ([3]; single injection 10 mg/kg, one minute before occlusion or before reperfusion): 32-42%; inflammatory response, distal colon (colitis): reduced the inflammatory response |
| 60 nM | – | CCN1CCN(Cc2ccc3c(c2)-c2n[nH]c(=O)c4cccc(c24)O3)CC1 | 120 nM | – |
| – | 120 nM | CC1=Cc2n[nH]c(=O)c3ccc(Cl)c(c23)N1 | – | – |
| 67 nM | – | O=c1[nH]nc2c3c(cccc13)Oc1ccc(CN3CCOCC3)cc1-2 | 300 nM | – |
| – | – | CN(C)c1ccc(N=Nc2ccc(S(=O)(=O)NCc3ccc4c(c3)-c3n[nH]c(=O)c5cccc(c35)O4)cc2)cc1 [Compound 55, 4-(4-Dimethylamino-phenylazo)-N-(3-oxo-2,3-dihydro-7-oxa-1,2-diaza-benzo[de]anthracen-10-ylmethyl)-benzenesulfonamide] | – | melting point: > 300 °C |
| – | 21 nM | NNC(=O)C1=Nc2n[nH]c(=O)c3cccc(c23)N1 | – | EC50 (P388D1 cells; Table I): 240 nM |
| 125 nM | – | CN(C)CC(=O)OCc1ccc2c(c1)-c1n[nH]c(=O)c3cccc(c13)O2 [drawing 54] | – | – |
| 86 nM | – | O=c1[nH]nc2c3c(cccc13)Oc1ccc(COP(=O)(OCc3ccccc3)OCc3ccccc3)cc1-2 [drawing 55] | 520 nM | – |

| IC50 ([1]; Table II) | IC50 ([1]; Table I) | Structure (SMILES) | EC50 (P388D1 cells; Table II) | further results |
| --- | --- | --- | --- | --- |
| – | – | CN(C)CC(=O)OCc1ccc2c(c1)-c1n[nH]c(=O)c3cccc(c13)O2 [Compound 59, Dimethylamino-acetic acid 3-oxo-2,3-dihydro-7-oxa-1,2-diaza-benzo[de]anthracen-10-ylmethyl ester] | – | melting point: 227 to 230 °C |
| 100 nM | – | CN(C)CCN(C)Cc1ccc2c(c1)-c1n[nH]c(=O)c3cccc(c13)O2 [10-{[(2-Dimethylamino-ethyl)-methyl-amino]-methyl}-2H-7-oxa-1,2-diaza-benzo[de]anthracen-3-one] | 170 nM | – |
| 177 nM | – | O=C(CCl)OCc1ccc2c(c1)-c1n[nH]c(=O)c3cccc(c13)O2 | – | – |
| – | – | NC(=O)c1cccnc1 [nicotinamide] | – | protection against vascular failure (endotoxic shock): protects against delayed, NO-mediated vascular failure |
| – | 39 nM | O=c1[nH]nc2c3c(cccc13)NC=N2 | – | EC50 (P388D1 cells; Table I): 350 nM |
| – | 18 nM | O=c1[nH]nc2c3c(cccc13)N=C(CN1CCOCC1)N2 | – | – |
| – | – | O=c1[nH]nc2c3c(cccc13)Oc1ccc(CN(CCO)CCO)cc1-2 [Compound 47, 10-{[Bis-(2-hydroxy-ethyl)-amino]-methyl}-2H-7-oxa-1,2-diaza-benzo[de]anthracen-3-one] | – | melting point: 222 to 225 °C |
| 48 nM | – | O=c1[nH]nc2c3c(cccc13)Oc1ccc(CN3CCNCC3)cc1-2 | 270 nM | – |
| – | 749 nM | NNC(=O)C1=CNc2c(Cl)ccc3c(=O)[nH]nc1c23 | – | – |
| – | 2790 nM | NNC(=O)C1=Cc2n[nH]c(=O)c3ccc(NN)c(c23)N1 | – | – |
| 19 nM | – | NCc1ccc2c(c1)-c1n[nH]c(=O)c3cccc(c13)O2 | 2080 nM | – |
| 1300 nM | – | CN(C)c1ccc(/N=N/c2ccc(S(=O)(=O)NCc3ccc4c(c3)-c3n[nH]c(=O)c5cccc(c35)O4)cc2)cc1 | – | – |
| 35 nM | – | CC(=O)OC(C(=O)O)C(OC(C)=O)C(=O)NCc1ccc2c(c1)-c1n[nH]c(=O)c3cccc(c13)O2 (centres unmarked) | 2080 nM | – |
| – | – | Oc1cccc2c(O)nccc12 [1,5-dihydroxyisoquinoline] | – | reduction in infarct size ([3]; 1 mg/kg): 38-48% |
| – | 91 nM | NC1=Nc2n[nH]c(=O)c3cccc(c23)N1 | – | EC50 (P388D1 cells; Table I): 640 nM |
| 30 nM | – | O=C(NCc1ccc2c(c1)-c1n[nH]c(=O)c3cccc(c13)O2)C1CCCN1 (centres unmarked) | 80 nM | – |
| 167 nM | – | O=C(O)c1ccc2c(c1)-c1n[nH]c(=O)c3cccc(c13)O2 | – | – |
| – | – | O=c1[nH]nc2c3c(cccc13)Oc1ccc(COP(=O)(OCc3ccccc3)OCc3ccccc3)cc1-2 [Compound 60, Phosphoric acid dibenzyl ester 3-oxo-2,3-dihydro-7-oxa-1,2-diaza-benzo[de]anthracen-10-ylmethyl ester] | – | melting point: 223 to 225 °C |
| – | – | O=c1[nH]nc2c3c(cccc13)Oc1ccc(CN3CCC(N4CCCC4)CC3)cc1-2 [drawing 63] | 300 nM | – |
| – | 18 nM | O=c1[nH]nc2c3c(cccc13)NC(CN1CCCC1)=N2 | – | – |
| – | 14 nM | NNC(=O)C1=CNc2cccc3c(=O)[nH]nc1c23 | – | EC50 (P388D1 cells; Table I): 100 nM |
| – | 87 nM | O=c1[nH]nc2c3c(cccc13)NC(CNCCCc1ccccc1)=N2 | – | EC50 (P388D1 cells; Table I): 10 nM |
| 89 nM | – | C=COC(=O)c1ccc2c(c1)-c1n[nH]c(=O)c3cccc(c13)O2 | – | – |
| – | – | O=c1[nH]nc2c3c(cccc13)Oc1ccc(CN3CCC(N4CCCC4)CC3)cc1-2 [Compound 48, 10-(4-Pyrrolidin-1-yl-piperidin-1-ylmethyl)-2H-7-oxa-1,2-diaza-benzo[de]anthracen-3-one] | – | melting point: 258 to 264 °C |

| Structure (SMILES) | IC50 ([1]; Table II) | IC50 ([1]; Table I) | EC50 (P388D1 cells; Table II) | further results |
| --- | --- | --- | --- | --- |
| CCOP(=O)(NCc1ccc2c(c1)-c1n[nH]c(=O)c3cccc(c13)O2)OCC | 275 nM | – | – | – |
